{
  "source": "patent US20110206650A1",
  "about": "“Probiotic Formulations” (BRACCO IMAGING S.P.A., priority 2008, published 2011)",
  "key": {"[1]": {"tested_on": "Staphylococcus epidermidis", "conditions": "Ref. 22; cited from earlier work"}, "[2]": {"assay": "acute oral semilethal dose (LD50) in mice", "conditions": "mouse, in vivo", "from_the_text": "Thus, DTPA is a safe oral drug, representing a preferred iron chelator for the compositions of the present invention.\nIt is therefore a further preferred iron chelator for the compositions of the invention."}, "mice": {"tested_on": "mice", "conditions": "cited from earlier work"}, "[3]": {"tested_on": "Corynebacterium xerosis ATCC 7711", "conditions": "Ref. 23; cited from earlier work"}, "[4]": {"conditions": "in vivo; cited from earlier work"}},
  "data": [
    {"compound": "O=C(O)CN(CC(=O)O)[C@@H]1CCCC[C@H]1N(CC(=O)O)CC(=O)O", "note": "(relative stereo) [CDTA, trans-1,2-diaminocyclohexane-N,N,N′,N′-tetraacetic acid]", "values": [
      {"measurement": "inhibition of growth of Staphylococcus epidermidis", "setting": "[1]", "value": "inhibit the growth"}
    ]},
    {"compound": "O=C(O)CN(CCN(CC(=O)O)CC(=O)O)CCN(CC(=O)O)C(COCc1ccccc1)C(=O)O", "note": "(centres unmarked) [BOPTA, 4-carboxy-5,8,11-tris(carboxymethyl)-1-phenyl-2-oxa-5,8,11-triazatridecan-13-oic acid]", "values": [
      {"measurement": "LD50", "setting": "[2]", "value": 8400, "unit": "µmol/kg"}
    ]},
    {"compound": "O=C(O)CN(CCN(CC(=O)O)CC(=O)O)CCN(CC(=O)O)CC(=O)O", "note": "[DTPA, diethylenetriaminepentaacetic acid]", "values": [
      {"measurement": "acute oral semilethal dose (LD50)", "setting": "mice", "value": 3500, "unit": "mg/kg"},
      {"measurement": "inhibition of growth of Staphylococcus epidermidis", "setting": "[1]", "value": "inhibit the growth"}
    ]},
    {"compound": "O=C(O)CN(CCN(CC(=O)O)CC(=O)O)CC(=O)O", "note": "[EDTA, ethylenediaminetetraacetic acid]", "values": [
      {"measurement": "inhibition of growth of Staphylococcus epidermidis", "setting": "[1]", "value": "inhibit the growth"}
    ]},
    {"compound": "O=C(O)C[C@H](NCCN[C@@H](CC(=O)O)C(=O)O)C(=O)O", "note": "[R,S-EDDS, R,S-ethylenediaminedisuccinic acid]", "values": [
      {"measurement": "inhibition of growth of Corynebacterium xerosis ATCC 7711", "setting": "[3]", "value": "inhibit growth"}
    ]},
    {"compound": "O=C(O)CN(CCN(CCN(CC(=O)O)CC(=O)O)CC(=O)O)CCN(CC(=O)O)CC(=O)O", "note": "[TTHA, triethylene-tetraaminehexaacetic acid]", "values": [
      {"measurement": "inhibition of growth of Staphylococcus epidermidis", "setting": "[1]", "value": "inhibit the growth"}
    ]},
    {"compound": "O=C([O-])CN(CCN(CC(=O)[O-])CC(=O)[O-])CCN(CC(=O)[O-])CC(=O)[O-].[H+].[H+].[Na+].[Na+].[Na+]", "note": "[trisodium pentetate]", "values": [
      {"measurement": "safety of oral dose", "setting": "[4]", "value": "proven to be safe"}
    ]}
  ]
}
